Measured values published in publication PMC9465256, “Discovering monoacylglycerol lipase inhibitors by a combination of fluorogenic substrate assay and activity-based protein profiling” (Frontiers in Pharmacology, 2022).
Where two headings read alike, the source gives them in different places.

Tests used:
human MAGL = biological target: T1, human MAGL (Homo sapiens, UniProt Q99685); assay: MAGL activity assay (AA-HNA fluorogenic substrate); type: biochemical
T1 construct: expressed in transfected cells; host or cells: HEK293T (transient transfection; membrane fraction)
T1 sequence (Q99685 1-303): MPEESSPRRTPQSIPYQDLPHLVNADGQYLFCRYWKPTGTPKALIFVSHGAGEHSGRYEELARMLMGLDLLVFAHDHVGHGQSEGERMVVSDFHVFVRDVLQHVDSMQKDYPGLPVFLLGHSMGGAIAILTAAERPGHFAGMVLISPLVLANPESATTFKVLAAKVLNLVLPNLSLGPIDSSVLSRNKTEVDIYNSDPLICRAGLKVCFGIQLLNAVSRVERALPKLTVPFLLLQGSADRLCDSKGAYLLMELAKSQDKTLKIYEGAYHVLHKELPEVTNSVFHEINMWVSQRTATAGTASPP
In short: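 Activity was taken as the fluorescence slope over 5–15 min after adding AA-HNA (10 µl of a 200 µM solution), with readings every minute for 30 min. Before substrate addition, inhibitors were incubated for 30 min with MAGL-overexpressing membranes from transfected HEK293T cells in HEPES buffer (40 mM, pH 7.5, 0.1 mg/ml BSA).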

OVCAR-3 cells = assay: Cell viability assay (CCK-8), OVCAR-3; type: cell-based; settings: OVCAR-3, 48 h; for IC50: Homo sapiens, read-out: Antiproliferation activity (pIC50 ± SEM) OVCAR-3 (converted)
Procedure: (§1) Various cancer cell lines, including human colon cancer cell line HT-29, ovarian cell line OVCAR-3, melanoma cell line B16-F10, skin squamous cancer cells A431, cervical cancer cells Hela, lung cancer cell lines A549, H1975, and HCC827, were purchased from American type culture collection (ATCC). A431, H1975, B16-F10, OVCAR-3, HT-29, HCC827, Hela, and A549 cells were cultured in Dulbecco’s modified Eagle medium (DMEM, Gibco) containing 10% fetal bovine serum (FBS, Gibco), penicillin (100 U/ml) and streptomycin (100 μg/ml). All cell lines were maintained in a humidified 37°C incubator with 5% CO2. The medium was refreshed every 2–3 days and the cells were passaged at ∼90% confluence by adding the fresh medium, followed by vigorously pipetting the resuspend cells. Of note, the cells were only washed with PBS when a significant number of dead cells were observed.
(§2) The antiproliferation activity of the compounds against the cancer cell lines was evaluated using Cell Counting Kit-8. Briefly, cells (∼1,000 per well) in 100 µl of culture medium were plated in a 96-well plate for 24 h and 100 µl of medium with different concentrations of the tested compounds was added to each well for 48 h. Then 10 μl of CCK8 solution (#CK04, Dojindo) was added and incubated at 37°C for 2 h. The absorbance of each well was measured with a plate reader (BioTeck) at 450 nm. Cell viability was calculated as follows: cell viability (%) = [(As-Ab)/(Ac-Ab)] × 100. Among them, As represents the absorbance of experimental wells, Ab represents the absorbance of blank wells and Ac represents the absorbance of control wells. The experiments were repeated at least three times and IC50 values were determined by plotting a log(inhibitor) v. s normalized response (Variable slope) dose–response curve generated using GraphPad Prism software.

A549 cells = assay: Cell viability assay (CCK-8), A549; type: cell-based; settings: A549, 48 h; for IC50: Homo sapiens, read-out: Antiproliferation activity (pIC50 ± SEM) A549 (converted)
Procedure: as §1, §2

[1] = tested on: panel of cancer cell lines (A431, H1975, B16-F10, OVCAR-3, HT-29, HCC827, Hela, A549); assay: Cell viability assay (CCK-8), panel of eight cancer cell lines; type: cell-based; settings: 48 h; for antiproliferative screening across the cell line panel: 20 µM
Procedure: as §1, §2

Hela cells = assay: Cell viability assay (CCK-8), Hela; type: cell-based; settings: 48 h; for IC50: Homo sapiens, read-out: Antiproliferation activity (pIC50 ± SEM) Hela (converted)
Procedure: as §1, §2

A431 cells = assay: Cell viability assay (CCK-8), A431; type: cell-based; settings: for IC50: Homo sapiens, A-431, read-out: Antiproliferation activity (pIC50 ± SEM) A431 (converted)
Procedure: as §1, §2

H1975 cells = assay: Cell viability assay (CCK-8), H1975; type: cell-based; settings: for IC50: Homo sapiens, NCI-H1975, H1975, 48 h, read-out: Antiproliferation activity (pIC50 ± SEM) H1975 (converted)
Procedure: as §1, §2

[2] = 100 µM, AA-HNA substrate assay, Supplementary Table 1, read-out: MAGL Inhibition (%)

| SMILES | inhibition at 100 µM (human MAGL; 100 µM, AA-HNA assay) [%] | activity at 100 µM (human MAGL; [2]) [%] | IC50 (human MAGL; printed in Figure 3B-D, read-out: IC50 (MAGL, AA-HNA assay)) [µM] | IC50 (human MAGL; recombinant human MAGL, AA-HNA assay, average ± SEM, n = 4, read-out: MAGL inhibition (pIC50) (converted)) [µM] | IC50 (OVCAR-3 cells) [µM] | IC50 (A549 cells) [µM] | antiproliferative screening across the cell line panel [1] | IC50 ([1]; CCK-8, read-out: pIC50 towards all eight cancer cell lines (converted)) [µM] | IC50 (Hela cells) [µM] | IC50 (A431 cells; A431, 48 h, CCK-8) [µM] | IC50 (H1975 cells) [µM] | activity (human MAGL; [2]) [%] | Antiproliferation activity (pIC50 ± SEM) OVCAR-3 (OVCAR-3 cells) | Antiproliferation activity (pIC50 ± SEM) A549 (A549 cells) | Antiproliferation activity (pIC50 ± SEM) Hela (Hela cells) | Antiproliferation activity (pIC50 ± SEM) A431 (A431 cells; A431, 48 h, CCK-8) | Antiproliferation activity (pIC50 ± SEM) H1975 (H1975 cells; H1975, 48 h) | inhibition of cell viability of A431 (A431 cells; 20 µM, 48 h) [%] |
| --- | --- | --- | --- | --- | --- | --- | --- | --- | --- | --- | --- | --- | --- | --- | --- | --- | --- | --- |
| C[C@H]1COC2=C1C(=O)C(=O)c1c2ccc2c1CCCC2(C)C [compound 23, Cryptotanshinone] | > 80 | 11.2 | 11 | 12.6 | 5.01 | 3.16 | appreciable inhibition against almost all the tested cell lines | ≤ 10 | 7.94 | 7.94 | 10 |  |  |  |  |  |  |  |
| Cl.N=c1ccn2c(n1)O[C@H]1[C@H](O)[C@@H](CO)O[C@H]12 [compound 1, Cyclocytidine HCl] |  |  |  |  |  |  | appreciable inhibition against almost all the tested cell lines |  |  |  |  | 31.7 | 5.7 ± 0.3 | 6.3 ± 0.2 | 5.0 ± 0.2 | <5 | <5 |  |
| O=c1cc(-c2ccc(O)cc2)oc2cc(O)cc(O)c12 [compound 9, Apigenin] | > 80 |  |  |  | > 10 | > 10 | neglectable antiproliferative behavior to other cell lines |  | > 10 | > 10 | > 10 |  |  |  |  |  |  |  |
| COc1ccc2cc3[n+](cc2c1OC)CCc1cc2c(cc1-3)OCO2 [compound 17, Berberine chloride] |  | 82.8 |  |  | > 10 | > 10 |  |  | > 10 | > 10 | > 10 |  |  |  |  |  |  |  |
| COc1ccc(C(C)=O)c(O)c1 [compound 64, Paeonol] |  | 102 |  |  | > 10 | > 10 | selectively inhibited cell proliferation of A431 over other cell lines |  | > 10 | 6.31 | > 10 |  |  |  |  |  |  | 78 |
